# Assays:
# Assay type in all cases: in vivo
# [1] = test system: monochoria (Monochoria vaginalis Presl); assay: Test Example 2: herbicidal effect on paddy field weeds after emergence; conditions: Dosage 5 kg/ha; one-leaved stage; 21 days after treatment
# Summary of the method: (§1)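 Weeds were sown in 1/10000 are pots of soil flooded to paddy conditions and grown to the one-leaf stage, then the soil was treated with a solution of compound at a predetermined dosage.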
# [2] = test system: barnyard grass (Echinochloa crus-galli Beauv.); assay: as above; conditions: Dosage 5 kg/ha; one-leaved stage; 21 days after treatment
# Summary of the method: as §1
# [3] = test system: bulrush (Scirpus juncoides Roxb.); assay: as above; conditions: Dosage 5 kg/ha; one-leaved stage; 21 days after treatment
# Summary of the method: as §1
# [4] = test system: barnyard grass (Echinochloa crus-galli Beauv.), Ec; assay: Test Example 3: herbicidal effect on upland weeds before emergence; conditions: dosage 5 kg/ha
# Summary of the method: (§2)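 Test compound, formulated as a liquid at a fixed concentration, is sprayed before weed emergence. Two weeks later, kill rate is derived and herbicidal activity is rated.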
# [5] = test system: cocklebur (Xanthium strumarium L.), Xs; assay: as above; conditions: dosage 5 kg/ha
# Summary of the method: as §2
# [6] = test system: forxtail grass (Alopecurus aequalis var. amurensis Ohwi), Am; assay: as above; conditions: foxtail grass, dosage 5 kg/ha
# Summary of the method: as §2
# [7] = test system: cleavers (Galium aparine L.), Ga; assay: as above; conditions: dosage 5 kg/ha
# Summary of the method: as §2
# [8] = test system: bird's eye speedwell (Veronica persica Poir.), Vp; assay: as above; conditions: dosage 5 kg/ha
# Summary of the method: as §2
# [9] = test system: velvetleaf (Abutilon theophtasti L.), At; assay: as above; conditions: dosage 5 kg/ha
# Summary of the method: as §2
# [10] = test system: barnyard grass (Echinochloa crus-galli Beauv.), Ec; assay: Test Example 4: herbicidal effect on upland weeds after emergence; conditions: dosage 5 kg/ha; sprayed after emergence; judged 14 days after treatment
# Summary of the method: (§3)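 Scores of weed-killing rate, with crop phytotoxicity, come from inspection 14 days after plants in soil vats, grown to specified leaf stages, are sprayed with a formulation holding the compound at a prescribed concentration.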
# [11] = test system: cocklebur (Xanthium strumarium L.), Xs; assay: as above; conditions: dosage 5 kg/ha; sprayed after emergence; judged 14 days after treatment
# Summary of the method: as §3
# [12] = test system: forxtail grass (Alopecurus aequalis var. amurensis Ohwi), Am; assay: as above; conditions: dosage 5 kg/ha; sprayed after emergence; judged 14 days after treatment
# Summary of the method: as §3
# [13] = test system: cleavers (Galium aparine L.), Ga; assay: as above; conditions: dosage 5 kg/ha; sprayed after emergence; judged 14 days after treatment
# Summary of the method: as §3
# [14] = test system: bird's eye speedwell (Veronica persica Poir.), Vp; assay: as above; conditions: dosage 5 kg/ha; sprayed after emergence; judged 14 days after treatment
# Summary of the method: as §3
# [15] = test system: velvetleaf (Abutilon theophtasti L.), At; assay: as above; conditions: dosage 5 kg/ha; sprayed after emergence; judged 14 days after treatment
# Summary of the method: as §3
# wheat = assay: Test Example 4: phytotoxicity to upland crop plants, treatment after emergence; conditions: dosage 5 kg/ha, sprayed after emergence, judged 14 days after treatment
# Summary of the method: (§4)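 Seeds sown in soil and covered. Plants raised to specified leaf stages. Agent with test compound at a prescribed concentration sprayed. Herbicidal effect and crop damage scored after 14 days as weed-killing rate.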
# soybean plant = assay: as above; conditions: dosage 5 kg/ha, sprayed after emergence, judged 14 days after treatment
# Summary of the method: as §4
# [16] = test system: barnyard grass (Echinochloa crus-galli Beauv.); assay: Test Example 1: herbicidal effect on paddy field weeds before emergence; conditions: Dosage 5 kg/ha
# Summary of the method: (§5)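 Seeds of both weeds, still ungerminated, in soil pots held under paddy conditions received a set dose of test solution as soil treatment. After twenty-one days, control relative to untreated pots was calculated and rated on a scoring scale.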
# [17] = test system: bulrush (Scirpus juncoides Roxb.); assay: as above; conditions: Dosage 5 kg/ha
# Summary of the method: as §5
# soybean plant (So) = assay: Test Example 3: phytotoxicity to upland crop plants, treatment before emergence; conditions: dosage 5 kg/ha
# Summary of the method: (§6)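 Compound formulated as a liquid agent at a prescribed concentration is sprayed before crop emergence. After fourteen days, damage to soybean and wheat is examined and rated by a judgment criterion.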
# wheat (Wh) = assay: as above; conditions: dosage 5 kg/ha
# Summary of the method: as §6
Compound,Post-emergence treatment Monochoria (herbicidal effect) [1],Post-emergence treatment Barnyard grass (herbicidal effect) [2],Post-emergence treatment Bulrush (herbicidal effect) [3],Herbicidal effect Ec [4],Herbicidal effect Xs [5],Herbicidal effect Am [6],Herbicidal effect Ga [7],Herbicidal effect Vp [8],Herbicidal effect At [9],Herbicidal effect Ec [10],Herbicidal effect Xs [11],Herbicidal effect Am [12],Herbicidal effect Ga [13],Herbicidal effect Vp [14],Herbicidal effect At [15],Phytotoxicity Wh (wheat),Phytotoxicity So (soybean plant),Pre-emergence treatment Barnyard grass (herbicidal effect) [16],Pre-emergence treatment Bulrush (herbicidal effect) [17],Phytotoxicity So (soybean plant (So)),also measured
"CCCNC(=O)c1nc2c(cc1C(=O)Nc1c(CC)ccc(Cl)c1CC)COCC2 [Compound No. 462, 3-(3-Chloro-2,6-diethylphenyl)-aminocarbonyl-7,8-dihydro-5H-pyrano[4,3-b]pyridine-2-carboxylic Acid n-Propylamide]",5 (Weed-killing rate is 100%.),5 (Weed-killing rate is 100%.),5 (Weed-killing rate is 100%.),5 (Weed-killing rate is 100%.),5 (Weed-killing rate is 100%.),5 (Weed-killing rate is 100%.),5 (Weed-killing rate is 100%.),5 (Weed-killing rate is 100%.),5 (Weed-killing rate is 100%.),5 (Weed-killing rate is 100%.),5 (Weed-killing rate is 100%.),5 (Weed-killing rate is 100%.),5 (Weed-killing rate is 100%.),5 (Weed-killing rate is 100%.),5 (Weed-killing rate is 100%.),5 (Crop-killing rate is 100%.),5 (Crop-killing rate is 100%.),5 (Weed-killing rate is 100%.),5 (Weed-killing rate is 100%.),5 (Crop-killing rate is 100%.),Phytotoxicity Wh (wheat (Wh)): 5 (Crop-killing rate is 100%.)
CCCNC(=O)c1nc2ncccc2cc1C(=O)Nc1cccc(Cl)c1C [compound 375],5 (Weed-killing rate is 100%.),5 (Weed-killing rate is 100%.),5 (Weed-killing rate is 100%.),5 (Weed-killing rate is 100%.),5 (Weed-killing rate is 100%.),5 (Weed-killing rate is 100%.),5 (Weed-killing rate is 100%.),5 (Weed-killing rate is 100%.),5 (Weed-killing rate is 100%.),5 (Weed-killing rate is 100%.),5 (Weed-killing rate is 100%.),5 (Weed-killing rate is 100%.),5 (Weed-killing rate is 100%.),5 (Weed-killing rate is 100%.),5 (Weed-killing rate is 100%.),4 (Crop-killing rate is 90-99%.),4 (Crop-killing rate is 90-99%.),5 (Weed-killing rate is 100%.),5 (Weed-killing rate is 100%.),3 (Crop-killing rate is 70-89%.),Phytotoxicity Wh (wheat (Wh)): 3 (Crop-killing rate is 70-89%.)
CCCNC(=O)c1nc2ccn(C)c2cc1C(=O)Nc1c(CC)ccc(Cl)c1CC [compound 907],5 (Weed-killing rate is 100%.),5 (Weed-killing rate is 100%.),5 (Weed-killing rate is 100%.),5 (Weed-killing rate is 100%.),5 (Weed-killing rate is 100%.),5 (Weed-killing rate is 100%.),5 (Weed-killing rate is 100%.),5 (Weed-killing rate is 100%.),5 (Weed-killing rate is 100%.),5 (Weed-killing rate is 100%.),5 (Weed-killing rate is 100%.),5 (Weed-killing rate is 100%.),5 (Weed-killing rate is 100%.),5 (Weed-killing rate is 100%.),5 (Weed-killing rate is 100%.),5 (Crop-killing rate is 100%.),4 (Crop-killing rate is 90-99%.),5 (Weed-killing rate is 100%.),5 (Weed-killing rate is 100%.),4 (Crop-killing rate is 90-99%.),Phytotoxicity Wh (wheat (Wh)): 5 (Crop-killing rate is 100%.)
CCCNC(=O)c1nc2cscc2cc1C(=O)Nc1c(CC)ccc(Cl)c1CC [compound 836],5 (Weed-killing rate is 100%.),5 (Weed-killing rate is 100%.),5 (Weed-killing rate is 100%.),5 (Weed-killing rate is 100%.),5 (Weed-killing rate is 100%.),5 (Weed-killing rate is 100%.),5 (Weed-killing rate is 100%.),5 (Weed-killing rate is 100%.),5 (Weed-killing rate is 100%.),5 (Weed-killing rate is 100%.),5 (Weed-killing rate is 100%.),5 (Weed-killing rate is 100%.),5 (Weed-killing rate is 100%.),5 (Weed-killing rate is 100%.),5 (Weed-killing rate is 100%.),5 (Crop-killing rate is 100%.),4 (Crop-killing rate is 90-99%.),5 (Weed-killing rate is 100%.),5 (Weed-killing rate is 100%.),4 (Crop-killing rate is 90-99%.),Phytotoxicity Wh (wheat (Wh)): 5 (Crop-killing rate is 100%.)
CCc1ccc(Cl)c(CC)c1NC(=O)c1cc2c(nc1C(=O)NC1CCCC1)OCCC2 [compound 423],5 (Weed-killing rate is 100%.),5 (Weed-killing rate is 100%.),5 (Weed-killing rate is 100%.),5 (Weed-killing rate is 100%.),5 (Weed-killing rate is 100%.),5 (Weed-killing rate is 100%.),5 (Weed-killing rate is 100%.),5 (Weed-killing rate is 100%.),5 (Weed-killing rate is 100%.),5 (Weed-killing rate is 100%.),5 (Weed-killing rate is 100%.),5 (Weed-killing rate is 100%.),5 (Weed-killing rate is 100%.),5 (Weed-killing rate is 100%.),5 (Weed-killing rate is 100%.),5 (Crop-killing rate is 100%.),4 (Crop-killing rate is 90-99%.),5 (Weed-killing rate is 100%.),5 (Weed-killing rate is 100%.),4 (Crop-killing rate is 90-99%.),Phytotoxicity Wh (wheat (Wh)): 5 (Crop-killing rate is 100%.)
